Laboratory results: patent publication US8835377B2, “Oral delivery of peptide pharmaceutical compositions” (UGP Therapeutics, Inc., priority 2004, dated 2014)

Experiment: Pharmacokinetics after oral capsules (sCT plus Dmt-DALDA with citric acid and lauroyl carnitine), non-enteric coated or enteric coated, in fasted beagle dogs (plasma; ELISA for sCT, HPLC-MS for Dmt-DALDA)
Format: in vivo
Description: A second series of tests was carried out, as noted above, using beagle dogs. […] In the experiments represented in FIGS. 2A and 2B, size 00 […] capsules were each filled with 758 mg of a powdered blend consisting of citric acid (643 mg), lauroyl carnitine (66 mg), talc (33 mg), salmon calcitonin (sCT) (13 mg) and Dmt-DALDA (2.4 mg). Half of the capsules were coated with an enteric coating solution of L30D-55, while the remaining 50% of the capsules were not coated. Four fasted dogs were each given 1 uncoated capsule, and 2 weeks later they were each given an enteric coated capsule. After administration of each capsule, samples of blood were taken at 15 minute intervals from an indwelling catheter for up to 4 hours. The blood samples were centrifuged and the resulting plasma supernatants were stored frozen at −20° C. The plasma samples were subsequently analyzed for sCT by a direct ELISA, and for Dmt-DALDA by HPLC-mass spectrometry performed as set forth in Wan, H. and Desiderio, D., Quantitation of [DMT^1] DALDA in ovine plasma by on-line liquid chromatography/quadrapole time-of-flight mass spectrometry, Rapid Communications in Mass Spectrometry, 2003; 17, 538-546, the contents of which are incorporated herein by reference.
The results summarized in FIGS. 2A and 2B as plasma peptide concentration normalized to a 1 mg dose as a function of time relative to the average Tmax, (i.e., the time at which the maximum amount of peptide was detected) indicate that both peptides, i.e., sCT and Dmt-DALDA, were detected in dogs given uncoated or enteric coated capsules. […] Table DI (below) sets forth the values upon which the curves in FIGS. 2A and 2B are based. The results are summarized in the tables as plasma peptide concentration normalized to a 1 mg dose as a function of time. Table III, moreover, provides the standard deviations for the data obtained regarding each of the test dogs, which standard deviations are also indicated in FIGS. 2A and 2B.
Table IV (below) summarizes the pharmacokinetic parameters in dogs of orally administered sCT and Dmt-DALDA when administered in non-enteric coated versus enteric coated capsules. Peptide was not detected from 1 dog in each group due to (a) Dog 3 vomiting the uncoated capsule and (b) delayed gastric emptying in Dog 2 provided with an enteric coated capsule. Cmax and AUC are as defined with regard to Table H above.

Cc1cc(O)cc(C)c1C[C@H](N)C(=O)N[C@H](CCCNC(=N)N)C(=O)N[C@@H](Cc1ccccc1)C(=O)N[C@@H](CCCCN)C(N)=O [Dmt-DALDA, H-2,6-dimethyltyrosine-D-Arginine-Phenylalanine-Lysine-NH2]
plasma peptide concentration normalized to a 1 mg dose (enteric coated capsule, Dog 3, 45 min): 0 pg/mL | plasma peptide concentration normalized to a 1 mg dose (enteric coated capsule, Dog 3, 60 min): 0 pg/mL | plasma peptide concentration normalized to a 1 mg dose (enteric coated capsule, Dog 3, 75 min): 0 pg/mL | plasma peptide concentration normalized to a 1 mg dose (enteric coated capsule, Dog 3, 90 min): 0 pg/mL | plasma peptide concentration normalized to a 1 mg dose (enteric coated capsule, Dog 3, 105 min): 0 pg/mL | plasma peptide concentration normalized to a 1 mg dose (enteric coated capsule, Dog 3, 120 min): 0 pg/mL | plasma peptide concentration normalized to a 1 mg dose (enteric coated capsule, Dog 3, 135 min): 21494 pg/mL | plasma peptide concentration normalized to a 1 mg dose (enteric coated capsule, Dog 3, 150 min): 19378 pg/mL | plasma peptide concentration normalized to a 1 mg dose (enteric coated capsule, Dog 3, 165 min): 12697 pg/mL | plasma peptide concentration normalized to a 1 mg dose (enteric coated capsule, Dog 3, 180 min): 9100 pg/mL | plasma peptide concentration normalized to a 1 mg dose (enteric coated capsule, Dog 3, 195 min): 4876 pg/mL | plasma peptide concentration normalized to a 1 mg dose (enteric coated capsule, Dog 4, 0 min): 0 pg/mL | plasma peptide concentration normalized to a 1 mg dose (enteric coated capsule, Dog 4, 15 min): 0 pg/mL | plasma peptide concentration normalized to a 1 mg dose (enteric coated capsule, Dog 4, 30 min): 0 pg/mL | plasma peptide concentration normalized to a 1 mg dose (enteric coated capsule, Dog 4, 45 min): 0 pg/mL | plasma peptide concentration normalized to a 1 mg dose (enteric coated capsule, Dog 4, 60 min): 0 pg/mL | plasma peptide concentration normalized to a 1 mg dose (enteric coated capsule, Dog 4, 75 min): 0 pg/mL | plasma peptide concentration normalized to a 1 mg dose (enteric coated capsule, Dog 4, 90 min): 0 pg/mL | plasma peptide concentration normalized to a 1 mg dose (enteric coated capsule, Dog 4, 105 min): 4577 pg/mL | plasma peptide concentration normalized to a 1 mg dose (enteric coated capsule, Dog 4, 120 min): 12116 pg/mL | plasma peptide concentration normalized to a 1 mg dose (enteric coated capsule, Dog 4, 135 min): 10207 pg/mL | plasma peptide concentration normalized to a 1 mg dose (enteric coated capsule, Dog 4, 150 min): 6307 pg/mL | plasma peptide concentration normalized to a 1 mg dose (enteric coated capsule, Dog 4, 165 min): 5158 pg/mL | plasma peptide concentration normalized to a 1 mg dose (enteric coated capsule, Dog 4, 180 min): 3884 pg/mL | plasma peptide concentration normalized to a 1 mg dose (enteric coated capsule, Dog 4, 195 min): 2896 pg/mL | plasma peptide concentration normalized to a 1 mg dose (non-enteric coated capsule, Dog 1, 45 min): 5104 pg/mL | plasma peptide concentration normalized to a 1 mg dose (non-enteric coated capsule, Dog 1, 60 min): 4066 pg/mL | plasma peptide concentration normalized to a 1 mg dose (non-enteric coated capsule, Dog 1, 75 min): 2407 pg/mL | plasma peptide concentration normalized to a 1 mg dose (non-enteric coated capsule, Dog 1, 90 min): 2780 pg/mL | plasma peptide concentration normalized to a 1 mg dose (non-enteric coated capsule, Dog 1, 105 min): 1938 pg/mL | plasma peptide concentration normalized to a 1 mg dose (non-enteric coated capsule, Dog 1, 120 min): 1627 pg/mL | plasma peptide concentration normalized to a 1 mg dose (non-enteric coated capsule, Dog 1, 135 min): 1158 pg/mL | plasma peptide concentration normalized to a 1 mg dose (non-enteric coated capsule, Dog 1, 150 min): 830 pg/mL | plasma peptide concentration normalized to a 1 mg dose (non-enteric coated capsule, Dog 1, 165 min): 913 pg/mL | plasma peptide concentration normalized to a 1 mg dose (non-enteric coated capsule, Dog 1, 180 min): 705 pg/mL | plasma peptide concentration normalized to a 1 mg dose (non-enteric coated capsule, Dog 1, 195 min): 581 pg/mL | plasma peptide concentration normalized to a 1 mg dose (non-enteric coated capsule, Dog 1, 210 min): 544 pg/mL | plasma peptide concentration normalized to a 1 mg dose (non-enteric coated capsule, Dog 1, 225 min): 436 pg/mL | plasma peptide concentration normalized to a 1 mg dose (non-enteric coated capsule, Dog 1, 240 min): 402 pg/mL | plasma peptide concentration normalized to a 1 mg dose (non-enteric coated capsule, Dog 2, 45 min): 5602 pg/mL | plasma peptide concentration normalized to a 1 mg dose (non-enteric coated capsule, Dog 2, 60 min): 5726 pg/mL | plasma peptide concentration normalized to a 1 mg dose (non-enteric coated capsule, Dog 2, 75 min): 4523 pg/mL | plasma peptide concentration normalized to a 1 mg dose (non-enteric coated capsule, Dog 2, 90 min): 3568 pg/mL | plasma peptide concentration normalized to a 1 mg dose (non-enteric coated capsule, Dog 2, 105 min): 3444 pg/mL | plasma peptide concentration normalized to a 1 mg dose (non-enteric coated capsule, Dog 2, 120 min): 2614 pg/mL | plasma peptide concentration normalized to a 1 mg dose (non-enteric coated capsule, Dog 2, 135 min): 2697 pg/mL | plasma peptide concentration normalized to a 1 mg dose (non-enteric coated capsule, Dog 2, 150 min): 2407 pg/mL | plasma peptide concentration normalized to a 1 mg dose (non-enteric coated capsule, Dog 2, 165 min): 2531 pg/mL | plasma peptide concentration normalized to a 1 mg dose (non-enteric coated capsule, Dog 2, 180 min): 2075 pg/mL | plasma peptide concentration normalized to a 1 mg dose (non-enteric coated capsule, Dog 2, 195 min): 1328 pg/mL | plasma peptide concentration normalized to a 1 mg dose (non-enteric coated capsule, Dog 2, 210 min): 1867 pg/mL | plasma peptide concentration normalized to a 1 mg dose (non-enteric coated capsule, Dog 2, 225 min): 1535 pg/mL | plasma peptide concentration normalized to a 1 mg dose (non-enteric coated capsule, Dog 2, 240 min): 1494 pg/mL | plasma peptide concentration normalized to a 1 mg dose (non-enteric coated capsule, Dog 4, 45 min): 5788 pg/mL | plasma peptide concentration normalized to a 1 mg dose (non-enteric coated capsule, Dog 4, 60 min): 4481 pg/mL | plasma peptide concentration normalized to a 1 mg dose (non-enteric coated capsule, Dog 4, 75 min): 2934 pg/mL | plasma peptide concentration normalized to a 1 mg dose (non-enteric coated capsule, Dog 4, 90 min): 2382 pg/mL | plasma peptide concentration normalized to a 1 mg dose (non-enteric coated capsule, Dog 4, 105 min): 3054 pg/mL | plasma peptide concentration normalized to a 1 mg dose (non-enteric coated capsule, Dog 4, 120 min): 1759 pg/mL | plasma peptide concentration normalized to a 1 mg dose (non-enteric coated capsule, Dog 4, 135 min): 1627 pg/mL | plasma peptide concentration normalized to a 1 mg dose (non-enteric coated capsule, Dog 4, 150 min): 1544 pg/mL | plasma peptide concentration normalized to a 1 mg dose (non-enteric coated capsule, Dog 4, 165 min): 1324 pg/mL | plasma peptide concentration normalized to a 1 mg dose (non-enteric coated capsule, Dog 4, 180 min): 1191 pg/mL | plasma peptide concentration normalized to a 1 mg dose (non-enteric coated capsule, Dog 4, 195 min): 851 pg/mL | plasma peptide concentration normalized to a 1 mg dose (non-enteric coated capsule, Dog 4, 210 min): 722 pg/mL | plasma peptide concentration normalized to a 1 mg dose (non-enteric coated capsule, Dog 4, 225 min): 672 pg/mL | plasma peptide concentration normalized to a 1 mg dose (non-enteric coated capsule, Dog 4, 240 min): 556 pg/mL
